Data published in patent US12383545B1, “Treatment of migraine” (priority 2018, dated 2025).

How the values were obtained:
[1] = tested on: participants with episodic migraine; experiment: Study A: adverse events (safety population); format: in vivo, human; details: for Deaths, n (%) / TEAE Constipation, n (%) / TEAE Fatigue, n (%) / TEAE Gastroenteritis, n (%) / TEAE Influenza, n (%) / TEAE Nasopharyngitis, n (%) / TEAE Nausea, n (%) / TEAE Sinus Congestion, n (%) / TEAE Sinusitis, n (%) / TEAE Somnolence, n (%) / TEAE Upper Respiratory Tract Infection, n (%) / TEAE Urinary Tract Infection, n (%): Study A, safety population
Protocol: Adverse events were reported by participants throughout the trial, and at a 4-week follow-up visit. Adverse event information was collected and documented during each clinic visit. Participants could also report adverse events via telephone call between visits. Causality of each adverse event was determined by the investigator who was blinded to the treatment. In addition, clinical laboratory tests, vital signs, electrocardiograms (ECG), and Columbia-Suicide Severity Rating Scale were evaluated. Based on the potential hepatotoxicity of prior gepants, treatment-emergent elevations in ALT or AST ≥3 times the upper limit of normal, as well as potential Hy's law cases, were evaluated as prespecified adverse events of special interest and were reviewed by an independent panel of liver experts blinded to treatment (see, e.g., Negro A et al., CGRP Receptor Antagonists: an expanding drug class for acute migraine? Expert Opin Investig Drugs 2012; 21:807-18; Messina R et al., CGRP—a target for acute therapy in migraine: Clinical Data. Cephalalgia 2019; 39:420-7).
Safety population included all randomized participants who took at least 1 dose of trial treatment. Participants are only counted once within each category. Percentages are calculated at 100×(n/N), where n is the number of participants within a specific category and N is the number of participants in the safety population for the treatment group. Adverse events are listed in decreasing order based on frequency reported in the overall population.

Alkaline Phosphatase = experiment: Example 5: postbaseline hepatic laboratory parameter values of clinical interest, Alkaline Phosphatase; format: in vivo, human; details: safety population
Text: This study consisted of a 4-week screening and baseline period and a 12-week double-blind treatment period, which was followed by a 4-week safety follow-up period. Total study duration is 20-weeks.
To be randomized, eligible patients had to be 18 to 75 years of age (inclusive), have a history of migraine with or without aura for at least 1 year consistent with a diagnosis according to the International Classification of Headache Disorders criteria, 3rd edition, beta version, have experienced 4 to 14 migraine/probable migraine headache days and <15 headache days in the 28-day baseline period. Patients who had clinically significant hematologic, endocrine, cardiovascular, cerebrovascular, pulmonary, renal, hepatic, gastrointestinal, or neurologic disease were excluded from the study.
A total of 834 patients were randomized to double-blind treatment (ITT population), and 825 patients took at least 1 dose of double-blind IP (safety population). […] The primary efficacy variable was the change from baseline in mean monthly migraine/probable migraine headache days across the 12-week treatment period. The secondary efficacy variables were the change from baseline in mean monthly headache days across the 12-week treatment period, proportion of patients with at least a 50% reduction in mean monthly migraine/probable migraine headache days across the 12-week treatment period, and the change from baseline in mean monthly acute medication use days across the 12-week treatment period.

SMILES: C[C@@H]1[C@H](c2c(F)ccc(F)c2F)C[C@H](NC(=O)c2cnc3c(c2)C[C@@]2(C3)C(=O)Nc3ncccc32)C(=O)N1CC(F)(F)F [atogepant]
- Deaths, n (%) ([1]; 10 mg QD): (0.0) %
- TEAE Constipation, n (%) ([1]; 10 mg QD): (7.7) %
- TEAE Fatigue, n (%) ([1]; 10 mg QD): (1.4) %
- TEAE Gastroenteritis, n (%) ([1]; 10 mg QD): (0.9) %
- TEAE Influenza, n (%) ([1]; 10 mg QD): (1.4) %
- TEAE Nasopharyngitis, n (%) ([1]; 10 mg QD): (1.8) %
- TEAE Nausea, n (%) ([1]; 10 mg QD): (5.0) %
- TEAE Sinus Congestion, n (%) ([1]; 10 mg QD): (0.5) %
- TEAE Sinusitis, n (%) ([1]; 10 mg QD): (1.8) %
- TEAE Somnolence, n (%) ([1]; 10 mg QD): (3.2) %
- TEAE Upper Respiratory Tract Infection, n (%) ([1]; 10 mg QD): (4.1) %
- TEAE Urinary Tract Infection, n (%) ([1]; 10 mg QD): (1.4) %
- Deaths, n (%) ([1]; 30 mg QD): (0.0) %
- TEAE Constipation, n (%) ([1]; 30 mg QD): (7.0) %
- TEAE Fatigue, n (%) ([1]; 30 mg QD): (3.1) %
- TEAE Gastroenteritis, n (%) ([1]; 30 mg QD): (2.2) %
- TEAE Influenza, n (%) ([1]; 30 mg QD): (0.9) %
- TEAE Nasopharyngitis, n (%) ([1]; 30 mg QD): (3.5) %
- TEAE Nausea, n (%) ([1]; 30 mg QD): (4.4) %
- TEAE Sinus Congestion, n (%) ([1]; 30 mg QD): (0.9) %
- TEAE Sinusitis, n (%) ([1]; 30 mg QD): (1.3) %
- TEAE Somnolence, n (%) ([1]; 30 mg QD): (1.8) %
- TEAE Upper Respiratory Tract Infection, n (%) ([1]; 30 mg QD): (5.7) %
- TEAE Urinary Tract Infection, n (%) ([1]; 30 mg QD): (3.9) %
- Deaths, n (%) ([1]; 60 mg QD): (0.0) %
- TEAE Constipation, n (%) ([1]; 60 mg QD): (6.9) %
- TEAE Fatigue, n (%) ([1]; 60 mg QD): (3.9) %
- TEAE Gastroenteritis, n (%) ([1]; 60 mg QD): (1.3) %
- TEAE Influenza, n (%) ([1]; 60 mg QD): (2.2) %
- TEAE Nasopharyngitis, n (%) ([1]; 60 mg QD): (3.5) %
- TEAE Nausea, n (%) ([1]; 60 mg QD): (6.1) %
- TEAE Sinus Congestion, n (%) ([1]; 60 mg QD): (1.7) %
- TEAE Sinusitis, n (%) ([1]; 60 mg QD): (2.2) %
- TEAE Somnolence, n (%) ([1]; 60 mg QD): (1.7) %
- TEAE Upper Respiratory Tract Infection, n (%) ([1]; 60 mg QD): (3.9) %
- TEAE Urinary Tract Infection, n (%) ([1]; 60 mg QD): (3.9) %
- cases of constipation mild in severity ([1]; human, in vivo, 12 weeks): 71.4%
- cases of constipation moderate in severity ([1]; human, in vivo, 12 weeks): 26.5%
- cases of nausea mild in severity ([1]; human, in vivo, 12 weeks): 77.1%
- cases of nausea moderate in severity ([1]; human, in vivo, 12 weeks): 22.9%
- frequency of upper respiratory tract infection ([1]; human, in vivo, 12 weeks): 3.9-5.7%
- Participants with postbaseline Alkaline Phosphatase (U/L) >=1 * ULN, (%) (Alkaline Phosphatase; Atogepant 10 mg QD (N = 93)): (5.4) %
- Participants with postbaseline Alkaline Phosphatase (U/L) >=1 * ULN, n/N1 (Alkaline Phosphatase; Atogepant 10 mg QD (N = 93)): 5/92
- Participants with postbaseline Alkaline Phosphatase (U/L) >=1.5 * ULN, (%) (Alkaline Phosphatase; Atogepant 10 mg QD (N = 93)): (1.1) %
- Participants with postbaseline Alkaline Phosphatase (U/L) >=1.5 * ULN, n/N1 (Alkaline Phosphatase; Atogepant 10 mg QD (N = 93)): 1/92
- Participants with postbaseline Alkaline Phosphatase (U/L) >=2 * ULN, (%) (Alkaline Phosphatase; Atogepant 10 mg QD (N = 93)): (1.1) %
- Participants with postbaseline Alkaline Phosphatase (U/L) >=2 * ULN, n/N1 (Alkaline Phosphatase; Atogepant 10 mg QD (N = 93)): 1/92
- Participants with postbaseline Alkaline Phosphatase (U/L) >=3 * ULN, n/N1 (Alkaline Phosphatase; Atogepant 10 mg QD (N = 93)): 0
- Participants with postbaseline Alkaline Phosphatase (U/L) >=5 * ULN, n/N1 (Alkaline Phosphatase; Atogepant 10 mg QD (N = 93)): 0
- Participants with postbaseline Alkaline Phosphatase (U/L) >=10 * ULN, n/N1 (Alkaline Phosphatase; Atogepant 10 mg QD (N = 93)): 0
- Participants with postbaseline Alkaline Phosphatase (U/L) >=20 * ULN, n/N1 (Alkaline Phosphatase; Atogepant 10 mg QD (N = 93)): 0
- Participants with postbaseline Alkaline Phosphatase (U/L) >=1 * ULN, (%) (Alkaline Phosphatase; Atogepant 30 mg BID (N = 86)): (2.4) %
- Participants with postbaseline Alkaline Phosphatase (U/L) >=1 * ULN, n/N1 (Alkaline Phosphatase; Atogepant 30 mg BID (N = 86)): 2/84
- Participants with postbaseline Alkaline Phosphatase (U/L) >=1.5 * ULN, n/N1 (Alkaline Phosphatase; Atogepant 30 mg BID (N = 86)): 0
- Participants with postbaseline Alkaline Phosphatase (U/L) >=2 * ULN, n/N1 (Alkaline Phosphatase; Atogepant 30 mg BID (N = 86)): 0
- Participants with postbaseline Alkaline Phosphatase (U/L) >=3 * ULN, n/N1 (Alkaline Phosphatase; Atogepant 30 mg BID (N = 86)): 0
- Participants with postbaseline Alkaline Phosphatase (U/L) >=5 * ULN, n/N1 (Alkaline Phosphatase; Atogepant 30 mg BID (N = 86)): 0
- Participants with postbaseline Alkaline Phosphatase (U/L) >=10 * ULN, n/N1 (Alkaline Phosphatase; Atogepant 30 mg BID (N = 86)): 0
- Participants with postbaseline Alkaline Phosphatase (U/L) >=20 * ULN, n/N1 (Alkaline Phosphatase; Atogepant 30 mg BID (N = 86)): 0
- Participants with postbaseline Alkaline Phosphatase (U/L) >=1 * ULN, (%) (Alkaline Phosphatase; Atogepant 30 mg QD (N = 183)): (10.6) %
- Participants with postbaseline Alkaline Phosphatase (U/L) >=1 * ULN, n/N1 (Alkaline Phosphatase; Atogepant 30 mg QD (N = 183)): 19/179
- Participants with postbaseline Alkaline Phosphatase (U/L) >=1.5 * ULN, (%) (Alkaline Phosphatase; Atogepant 30 mg QD (N = 183)): (0.6) %
- Participants with postbaseline Alkaline Phosphatase (U/L) >=1.5 * ULN, n/N1 (Alkaline Phosphatase; Atogepant 30 mg QD (N = 183)): 1/179
- Participants with postbaseline Alkaline Phosphatase (U/L) >=2 * ULN, n/N1 (Alkaline Phosphatase; Atogepant 30 mg QD (N = 183)): 0
- Participants with postbaseline Alkaline Phosphatase (U/L) >=3 * ULN, n/N1 (Alkaline Phosphatase; Atogepant 30 mg QD (N = 183)): 0
- Participants with postbaseline Alkaline Phosphatase (U/L) >=5 * ULN, n/N1 (Alkaline Phosphatase; Atogepant 30 mg QD (N = 183)): 0
- Participants with postbaseline Alkaline Phosphatase (U/L) >=10 * ULN, n/N1 (Alkaline Phosphatase; Atogepant 30 mg QD (N = 183)): 0
- Participants with postbaseline Alkaline Phosphatase (U/L) >=20 * ULN, n/N1 (Alkaline Phosphatase; Atogepant 30 mg QD (N = 183)): 0
- Participants with postbaseline Alkaline Phosphatase (U/L) >=1 * ULN, (%) (Alkaline Phosphatase; Atogepant 60 mg BID (N = 91)): (3.4) %
- Participants with postbaseline Alkaline Phosphatase (U/L) >=1 * ULN, n/N1 (Alkaline Phosphatase; Atogepant 60 mg BID (N = 91)): 3/88
- Participants with postbaseline Alkaline Phosphatase (U/L) >=1.5 * ULN, n/N1 (Alkaline Phosphatase; Atogepant 60 mg BID (N = 91)): 0
- Participants with postbaseline Alkaline Phosphatase (U/L) >=2 * ULN, n/N1 (Alkaline Phosphatase; Atogepant 60 mg BID (N = 91)): 0
- Participants with postbaseline Alkaline Phosphatase (U/L) >=3 * ULN, n/N1 (Alkaline Phosphatase; Atogepant 60 mg BID (N = 91)): 0
- Participants with postbaseline Alkaline Phosphatase (U/L) >=5 * ULN, n/N1 (Alkaline Phosphatase; Atogepant 60 mg BID (N = 91)): 0
- Participants with postbaseline Alkaline Phosphatase (U/L) >=10 * ULN, n/N1 (Alkaline Phosphatase; Atogepant 60 mg BID (N = 91)): 0
- Participants with postbaseline Alkaline Phosphatase (U/L) >=20 * ULN, n/N1 (Alkaline Phosphatase; Atogepant 60 mg BID (N = 91)): 0
- Participants with postbaseline Alkaline Phosphatase (U/L) >=1 * ULN, (%) (Alkaline Phosphatase; Atogepant 60 mg QD (N = 186)): (6.6) %
- Participants with postbaseline Alkaline Phosphatase (U/L) >=1 * ULN, n/N1 (Alkaline Phosphatase; Atogepant 60 mg QD (N = 186)): 12/181
- Participants with postbaseline Alkaline Phosphatase (U/L) >=1.5 * ULN, n/N1 (Alkaline Phosphatase; Atogepant 60 mg QD (N = 186)): 0
- Participants with postbaseline Alkaline Phosphatase (U/L) >=2 * ULN, n/N1 (Alkaline Phosphatase; Atogepant 60 mg QD (N = 186)): 0
- Participants with postbaseline Alkaline Phosphatase (U/L) >=3 * ULN, n/N1 (Alkaline Phosphatase; Atogepant 60 mg QD (N = 186)): 0
- Participants with postbaseline Alkaline Phosphatase (U/L) >=5 * ULN, n/N1 (Alkaline Phosphatase; Atogepant 60 mg QD (N = 186)): 0
- Participants with postbaseline Alkaline Phosphatase (U/L) >=10 * ULN, n/N1 (Alkaline Phosphatase; Atogepant 60 mg QD (N = 186)): 0
- Participants with postbaseline Alkaline Phosphatase (U/L) >=20 * ULN, n/N1 (Alkaline Phosphatase; Atogepant 60 mg QD (N = 186)): 0
